{"source": "the supplement of paper PMC10307832", "test_in_all_cases": "relative viability (nuclei count vs DMSO), 5 days (fraction); higher = more cells survive", "key": {"[1]": {"compound": "OCc1c[nH]c2ccccc12 [Indole-3-carbinol]", "in_short": "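Viability here means nuclei in treated wells divided by nuclei in vehicle wells, reported as the median across plates. Only plates with control CV below 25% and at least one doubling passed. Lung cancer cell lines in 1536-well plates were exposed to five √10-spaced library-drug doses for 5 days and counted from 4× Hoechst images in MetaXpress.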"}, "[2]": {"compound": "OCc1c[nH]c2ccccc12 [Indole-3-carbinol] + O=C(c1cc(Cc2n[nH]c(=O)c3ccccc23)ccc1F)N1CCN(C(=O)C2CC2)CC1 [Olaparib] (partner 8 µM)", "in_short": "(§1)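 Relative viability divides the nuclei count in treated wells by that in vehicle wells. Lung cancer cell lines were seeded in 1536-well plates, dosed by pin tool the next day, and fixed and stained after 5 days in one step with final 0.05% Triton X-100, 1% formaldehyde and 1 ug/ml Hoechst. Dosing was a single drug or a fixed anchor-drug dose plus five library-drug doses (not always all listed) in √10 steps, and values are medians of duplicate plates imaged at 4×.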"}, "[3]": {"compound": "OCc1c[nH]c2ccccc12 [Indole-3-carbinol] + CS(=O)(=O)N1CCN(Cc2cc3nc(-c4cccc5[nH]ncc45)nc(N4CCOCC4)c3s2)CC1 [Pictilisib] (partner 1 µM)", "in_short": "as §1"}, "[4]": {"compound": "OCc1c[nH]c2ccccc12 [Indole-3-carbinol] + COc1cc2c(Oc3ccc(NC(=O)C4(C(=O)Nc5ccc(F)cc5)CC4)cc3F)ccnc2cc1OCCCN1CCOCC1 [Foretinib] (partner 0.25 µM)", "in_short": "as §1"}, "[5]": {"compound": "OCc1c[nH]c2ccccc12 [Indole-3-carbinol] + CC1(C)CCC(c2ccc(Cl)cc2)=C(CN2CCN(c3ccc(C(=O)NS(=O)(=O)c4ccc(N[C@H](CCN5CCOCC5)CSc5ccccc5)c(S(=O)(=O)C(F)(F)F)c4)cc3)CC2)C1 [Navitoclax] (partner 0.5 µM)", "in_short": "as §1"}, "[6]": {"compound": "OCc1c[nH]c2ccccc12 [Indole-3-carbinol] + CS(=O)(=O)CCNCc1ccc(-c2ccc3ncnc(Nc4ccc(OCc5cccc(F)c5)c(Cl)c4)c3c2)o1 [Lapatinib] (partner 2 µM)", "in_short": "as §1"}, "[7]": {"compound": "OCc1c[nH]c2ccccc12 [Indole-3-carbinol] + Cc1nc(NC(=O)N2CCC[C@H]2C(N)=O)sc1-c1ccnc(C(C)(C)C(F)(F)F)c1 [Alpelisib] (partner 2 µM)", "in_short": "as §1"}, "[8]": {"compound": "OCc1c[nH]c2ccccc12 [Indole-3-carbinol] + C[C@]1(O)C[C@@H](c2nc(-c3ccc4ccc(-c5ccccc5)nc4c3)c3c(N)nccn32)C1 [Linsitinib] (partner 1 µM)", "in_short": "as §1"}, "[9]": {"compound": "OCc1c[nH]c2ccccc12 [Indole-3-carbinol] + CC(C)C[C@H](NC(=O)[C@H](Cc1ccccc1)NC(=O)c1cnccn1)B(O)O [Bortezomib] (partner 0.002 µM)", "in_short": "as §1"}, "[10]": {"compound": "OCc1c[nH]c2ccccc12 [Indole-3-carbinol] + C[C@@H](Oc1cc(-c2cnn(C3CCNCC3)c2)cnc1N)c1c(Cl)ccc(F)c1Cl [Crizotinib] (partner 1 µM)", "in_short": "as §1"}}, "data": [{"cell line": "Calu-6", "values": [{"measurement": "relative viability", "setting": "[1]; 0.253 µM", "result": 1.07}, {"measurement": "relative viability", "setting": "[1]; 0.8 µM", "result": 0.994}, {"measurement": "relative viability", "setting": "[1]; 2.53 µM", "result": 1}, {"measurement": "relative viability", "setting": "[1]; 8 µM", "result": 0.914}, {"measurement": "relative viability", "setting": "[2]; first compound 0.253 µM", "result": 0.615}, {"measurement": "relative viability", "setting": "[2]; first compound 0.8 µM", "result": 0.629}, {"measurement": "relative viability", "setting": "[2]; first compound 2.53 µM", "result": 0.59}, {"measurement": "relative viability", "setting": "[2]; first compound 8 µM", "result": 0.536}, {"measurement": "relative viability", "setting": "[3]; first compound 0.253 µM", "result": 0.887}, {"measurement": "relative viability", "setting": "[3]; first compound 0.8 µM", "result": 1.05}, {"measurement": "relative viability", "setting": "[3]; first compound 2.53 µM", "result": 0.916}, {"measurement": "relative viability", "setting": "[3]; first compound 8 µM", "result": 0.865}, {"measurement": "relative viability", "setting": "[4]; first compound 0.253 µM", "result": 0.927}, {"measurement": "relative viability", "setting": "[4]; first compound 0.8 µM", "result": 0.941}, {"measurement": "relative viability", "setting": "[4]; first compound 2.53 µM", "result": 0.842}, {"measurement": "relative viability", "setting": "[4]; first compound 8 µM", "result": 0.841}, {"measurement": "relative viability", "setting": "[5]; first compound 0.253 µM", "result": 0.836}, {"measurement": "relative viability", "setting": "[5]; first compound 0.8 µM", "result": 0.947}, {"measurement": "relative viability", "setting": "[5]; first compound 2.53 µM", "result": 0.889}, {"measurement": "relative viability", "setting": "[5]; first compound 8 µM", "result": 0.648}, {"measurement": "relative viability", "setting": "[6]; first compound 0.253 µM", "result": 1.03}, {"measurement": "relative viability", "setting": "[6]; first compound 0.8 µM", "result": 1.12}, {"measurement": "relative viability", "setting": "[6]; first compound 2.53 µM", "result": 1.05}, {"measurement": "relative viability", "setting": "[6]; first compound 8 µM", "result": 0.94}, {"measurement": "relative viability", "setting": "[7]; first compound 0.253 µM", "result": 1.04}, {"measurement": "relative viability", "setting": "[7]; first compound 0.8 µM", "result": 0.966}, {"measurement": "relative viability", "setting": "[7]; first compound 2.53 µM", "result": 0.819}, {"measurement": "relative viability", "setting": "[7]; first compound 8 µM", "result": 0.922}, {"measurement": "relative viability", "setting": "[8]; first compound 0.253 µM", "result": 0.974}, {"measurement": "relative viability", "setting": "[8]; first compound 0.8 µM", "result": 0.88}, {"measurement": "relative viability", "setting": "[8]; first compound 2.53 µM", "result": 1.07}, {"measurement": "relative viability", "setting": "[8]; first compound 8 µM", "result": 0.92}, {"measurement": "relative viability", "setting": "[9]; first compound 0.253 µM", "result": 1.08}, {"measurement": "relative viability", "setting": "[9]; first compound 0.8 µM", "result": 1.1}, {"measurement": "relative viability", "setting": "[9]; first compound 2.53 µM", "result": 1.01}, {"measurement": "relative viability", "setting": "[9]; first compound 8 µM", "result": 0.966}, {"measurement": "relative viability", "setting": "[10]; first compound 0.253 µM", "result": 0.759}, {"measurement": "relative viability", "setting": "[10]; first compound 0.8 µM", "result": 0.863}, {"measurement": "relative viability", "setting": "[10]; first compound 2.53 µM", "result": 0.871}, {"measurement": "relative viability", "setting": "[10]; first compound 8 µM", "result": 0.742}]}, {"cell line": "EBC-1", "values": [{"measurement": "relative viability", "setting": "[1]; 0.253 µM", "result": 0.938}, {"measurement": "relative viability", "setting": "[1]; 0.8 µM", "result": 1.01}, {"measurement": "relative viability", "setting": "[1]; 2.53 µM", "result": 1.07}, {"measurement": "relative viability", "setting": "[1]; 8 µM", "result": 0.871}, {"measurement": "relative viability", "setting": "[2]; first compound 0.253 µM", "result": 0.684}, {"measurement": "relative viability", "setting": "[2]; first compound 0.8 µM", "result": 0.732}, {"measurement": "relative viability", "setting": "[2]; first compound 2.53 µM", "result": 0.631}, {"measurement": "relative viability", "setting": "[2]; first compound 8 µM", "result": 0.566}, {"measurement": "relative viability", "setting": "[3]; first compound 0.253 µM", "result": 0.359}, {"measurement": "relative viability", "setting": "[3]; first compound 0.8 µM", "result": 0.4}, {"measurement": "relative viability", "setting": "[3]; first compound 2.53 µM", "result": 0.347}, {"measurement": "relative viability", "setting": "[3]; first compound 8 µM", "result": 0.364}, {"measurement": "relative viability", "setting": "[4]; first compound 0.253 µM", "result": 0.122}, {"measurement": "relative viability", "setting": "[4]; first compound 0.8 µM", "result": 0.0975}, {"measurement": "relative viability", "setting": "[4]; first compound 2.53 µM", "result": 0.1}, {"measurement": "relative viability", "setting": "[4]; first compound 8 µM", "result": 0.102}, {"measurement": "relative viability", "setting": "[5]; first compound 0.253 µM", "result": 0.355}, {"measurement": "relative viability", "setting": "[5]; first compound 0.8 µM", "result": 0.404}, {"measurement": "relative viability", "setting": "[5]; first compound 2.53 µM", "result": 0.39}, {"measurement": "relative viability", "setting": "[5]; first compound 8 µM", "result": 0.415}, {"measurement": "relative viability", "setting": "[6]; first compound 0.253 µM", "result": 0.196}, {"measurement": "relative viability", "setting": "[6]; first compound 0.8 µM", "result": 0.186}, {"measurement": "relative viability", "setting": "[6]; first compound 2.53 µM", "result": 0.228}, {"measurement": "relative viability", "setting": "[6]; first compound 8 µM", "result": 0.244}, {"measurement": "relative viability", "setting": "[7]; first compound 0.253 µM", "result": 0.826}, {"measurement": "relative viability", "setting": "[7]; first compound 0.8 µM", "result": 0.856}, {"measurement": "relative viability", "setting": "[7]; first compound 2.53 µM", "result": 0.83}, {"measurement": "relative viability", "setting": "[7]; first compound 8 µM", "result": 0.719}, {"measurement": "relative viability", "setting": "[8]; first compound 0.253 µM", "result": 0.974}, {"measurement": "relative viability", "setting": "[8]; first compound 0.8 µM", "result": 0.965}, {"measurement": "relative viability", "setting": "[8]; first compound 2.53 µM", "result": 1.07}, {"measurement": "relative viability", "setting": "[8]; first compound 8 µM", "result": 0.71}, {"measurement": "relative viability", "setting": "[9]; first compound 0.253 µM", "result": 0.546}, {"measurement": "relative viability", "setting": "[9]; first compound 0.8 µM", "result": 0.541}, {"measurement": "relative viability", "setting": "[9]; first compound 2.53 µM", "result": 0.628}, {"measurement": "relative viability", "setting": "[9]; first compound 8 µM", "result": 0.477}, {"measurement": "relative viability", "setting": "[10]; first compound 0.253 µM", "result": 0.176}, {"measurement": "relative viability", "setting": "[10]; first compound 0.8 µM", "result": 0.188}, {"measurement": "relative viability", "setting": "[10]; first compound 2.53 µM", "result": 0.205}, {"measurement": "relative viability", "setting": "[10]; first compound 8 µM", "result": 0.169}]}]}
